# Measured values: a melting point compilation (Tetko et al.; mined from patent text by program, amines drawn as free bases though some values may be those of a salt)
row,Compound,melting point
1,CCOC(=O)C1=C(C(F)(F)F)Nc2n[nH]cc2C1c1ccc(C(=O)OCC)cc1 (stereo unspecified),157 to 160 °C
2,Cc1c(C2(c3ccccc3)CCC(c3ccccc3)(N(C)C)CC2)[nH]c2ccccc12 (stereo unspecified),193 to 207 °C
3,CC(=O)C1C(C(=O)c2ccc(Cl)cc2)CC2C3CCC4=CC(=O)CCC4(C)C3(F)C(O)CC21C (stereo unspecified),280 to 281 °C
4,CC(=O)Oc1c(C(=O)c2ccccc2Cl)c(C)nn1C,78 to 79 °C
5,COC(=O)C1=C(N)C(CCCCC(=O)O)SC1 (stereo unspecified),98 to 102 °C
6,COC(=O)CN=C(Cc1ccccc1)N1CC2C(=O)CCC(c3ccccc3)(c3ccccc3)C2C1 (stereo unspecified),147 °C
7,CC(C)C(=O)NCCCCn1c(CO)nc2c(N)nc3ccccc3c21,222 to 224 °C
8,CC(C)(C)[Si](OCCOc1ccc(N)cn1)(c1ccccc1)c1ccccc1,59 to 61 °C
9,O=C(Nc1ccccc1)c1ccc(-c2n[nH]c3c2Cc2ccccc2-3)cc1,186 to 190 °C
10,O=c1oc2ccccc2c2c1-c1ccccc1OC2,202 °C
11,COc1cn(-c2ccc(N3CC4(CC4)OC3=O)cc2F)nc(-c2ccnn2-c2ccccc2)c1=O,200 to 201 °C
12,CCCCCC(C(=O)c1ccccc1)C(=O)c1ccccc1,68.5 to 69.5 °C
13,CSc1nc(=O)cc(N)n1-c1ccc(C)cc1,130 to 132 °C
14,O=C(O)CCCOc1ccc(Nc2ccccc2)cc1,110 to 111 °C
15,Cc1nc(-c2cccc(C(=O)O)c2)nn1-c1cccc(F)c1,236 to 238 °C
16,CCOc1cccc(C(COc2ccccc2)n2nc(C(=O)O)c3c2-c2ccc(OCc4cncnc4)cc2CC3)c1 (stereo unspecified),190 to 192 °C
17,N#Cc1ccc(-c2cccc3cncn23)cc1,117 to 118 °C
18,COc1c(N)nc(Cl)nc1Cl,155 to 156 °C
19,CCCCOC(=O)NC1C(=O)N(OCC(=O)OC(c2ccccc2)c2ccccc2)C1C (stereo unspecified),105 to 108 °C
20,Cc1ccccc1-c1cc2ncccc2c(=O)n1C,104 to 106 °C
21,CSCc1noc(C(C)c2ccc(-c3ccccc3)c(F)c2)n1 (stereo unspecified),55.5 to 56 °C
22,COc1cccc(C(CC(N)=O)CC(N)=O)c1,161 to 162 °C
23,COc1c(Cl)ccc(-c2cc(N)c(Cl)c(C(=O)NOCc3ccoc3)n2)c1F,160 to 162 °C
24,CC(C)OC1C=CC(=O)N1S(=O)(=O)c1ccccc1 (stereo unspecified),148 to 149 °C
25,Cc1cc(N)ccc1NC(=O)c1ccc(N)cc1,111 to 115 °C
26,Clc1ccc(C(c2ccccc2)(c2ncc[nH]2)c2ncc[nH]2)cc1,140 °C

row,Compound,melting point
1,COc1cc2nc(N3CCc4c(CO)cccc4C3)[nH]c(=O)c2cc1OC,200 to 206 °C
2,O=C(CCC1(C(=O)O)CCCC1)OCc1ccc([N+](=O)[O-])cc1,78 to 80 °C
3,CC(=O)Nc1ccc(C#Cc2c(F)c(F)nc(F)c2F)cc1,189 to 190 °C
4,CCOC(=O)NNC(=O)NCCCCl,105 to 106 °C
5,OCCc1cc2c(cc1Cc1ccccc1)OCO2,64 to 65 °C
6,CCOC(=O)c1ncn2c1CN=C(c1ccccc1F)c1cc(I)ccc1-2,200 to 202 °C
7,NC(=O)c1ncn2c1[C@@H]1CCCN1C(=O)c1cc(F)ccc1-2,239 to 240 °C
8,CCOC(=O)CSc1nc(-c2ccccc2)c(-c2ccccc2)o1,53 to 55 °C
9,CCOC(=O)c1c(C)n(C(C)=O)c(=O)n1C(C)=O,56 to 58 °C
10,COCCC1(C(=O)N[C@@H](Cc2ccc(NC(=O)c3c(Cl)cccc3Cl)cc2)C(=O)O)CCCC1,136 to 140 °C
11,Cc1ccc(S(=O)(=O)OCC2CCc3ccc4[nH]c(C(F)(F)F)nc4c3O2)cc1 (stereo unspecified),160 °C
12,COC(=O)c1ncc(C(=O)O)c2ccccc12,189 °C
13,Cc1oc(-c2ccco2)nc1COc1ccc(COc2nn(Cc3ccccc3)cc2C=O)cc1Cl,158 to 159 °C
14,CC(C)(CO)CCCCC(CCCCC(C)(C)CO)C(C)(C)O,72 to 74 °C
15,Cc1nccn2c(-c3ccnc(NCCC(C)(C)O)n3)c(-c3ccc(F)cc3F)nc12,175 °C
16,CCOCc1nc2c(N)nc3cc(-c4cccc(C(=O)O)c4)ccc3c2n1CC(C)(C)O,> 250 °C
17,CCOC(=O)Nc1cscc1C(=O)OC,52 °C
18,CN1CCN(c2cccc3ccc(C(=O)c4ccccc4)cc23)CC1,124 °C
19,CN1CCN(c2cc(C(=O)Nc3ccc4c(c3)-c3c(c(C(N)=O)nn3-c3ccc(F)cc3)CC4)ccn2)CC1,277 to 279 °C
20,CC(C)(N)CNCCCCCCNCC(C)(C)N,25 to 35 °C
21,CC(C)(C#N)c1cc(C#N)cc(Cn2cncn2)c1,90 to 92 °C
22,CCC1(C)COP(=O)(Cc2ccc([N+](=O)[O-])cc2)OC1 (stereo unspecified),184 to 185 °C
23,O=S(=O)(c1ccccc1)c1c(-c2ccc(Cl)cc2)[nH]c(C(F)(F)F)c1Cl,158 to 161 °C
24,Cc1ccc(NC(=O)NCc2cccc3c2C(=O)N(C2CCC(=O)NC2=O)C3=O)cc1C (stereo unspecified),222 to 224 °C
25,O=c1[nH]c2c(I)c([N+](=O)[O-])c(Cl)c([N+](=O)[O-])c2[nH]c1=O,240 to 242 °C
26,COC(=O)C(Oc1ccc(Cl)cc1)c1ccc(Sc2ccc(Cl)cc2)cc1 (stereo unspecified),90.5 to 94.5 °C

row,Compound,melting point
1,COc1ccc(-c2noc3c2CCCC(C(=O)O)C3)cc1 (stereo unspecified),194 to 196 °C
2,COC(=O)C(Sc1ccccc1)c1ccc(I)cc1 (stereo unspecified),62.5 to 65 °C
3,NS(=O)(=O)c1ccc(-c2cccc(-c3nc(-c4ccc(C(F)(F)F)cc4F)cc(C(F)(F)F)n3)c2)s1,192 °C
4,COC(=O)c1cc(-c2ccc(C)cc2)n(Cc2ccc(Cl)c(Cl)c2)n1,98.6 °C
5,c1csc(Cn2ccnc2-c2ncc[nH]2)c1,153 to 155 °C
6,CCOP(=O)(OCC)ON=C1C=CC(=C(C#N)c2ccccc2C)S1,90 to 91 °C
7,O=c1[nH]c2ccc(Cl)cc2n2cc(-c3ccccc3)cc12,346 °C
8,CCn1cc(C(=O)O)c(=O)cc1Cl,155 to 157 °C
9,O=Cc1cccc(Sc2ccccc2Cl)c1O,111 to 112 °C
10,Cc1noc(NS(=O)(=O)c2ccccc2-c2ccc(-c3ncco3)cc2CN(C)C(=O)CCc2ccccc2)c1C,110 to 117 °C
11,CC(C)c1nsc(N=C(C#N)N(C)C)c1C#N,78 to 79 °C
12,CC(=O)c1c(N=Cc2ccccc2)c(-c2ccccc2)n(Cc2ccc(Cl)cc2)c1C,136 to 137 °C
13,COc1ccc(N2CCOCC2)c2sc(C(=O)O)nc12,99 to 100 °C
14,CCOCCn1c(C2CCN(CCc3ccc(C(C)(C)C)cc3)CC2)nc2ccccc21,138 to 140 °C
15,N#Cc1ccnc(Cl)c1Cl,65 to 69 °C
16,CCOC(Cn1cncn1)(c1ccc(F)cc1F)C(F)(F)S(=O)(=O)CCO (stereo unspecified),150 to 153 °C
17,COc1ccc2cccc(C(CNC(C)=O)COS(C)(=O)=O)c2c1 (stereo unspecified),104 to 106 °C
18,CC1(C)CCC(C)(C)c2cc(NC(=O)c3ccc(C(=O)O)nc3)ccc21,200 to 201 °C
19,Cc1ccc(C(=O)NC(NC(=S)Nc2ccccc2F)C(F)(F)F)cc1 (stereo unspecified),197 to 198 °C
20,N#Cc1nn(-c2c(Cl)cc(C(F)(F)F)cc2Cl)c(N)c1S(=O)(=O)CC(F)(F)F,157 °C
21,CC(C)n1nc(-c2c(-c3ccccc3)nn3ccc(N4CCN(Cc5ccccc5)CC4)cc23)ccc1=O,136 to 138 °C
22,O=C1OCC(CC(F)(F)F)N1c1nc(-c2ccc(Br)cc2)cs1 (stereo unspecified),163 to 165 °C
23,CCOC(=O)C(Cc1ccc2ccccc2c1Br)C(=O)OCC,60 to 65 °C
24,Cc1cc(=O)c(-c2ccc(Oc3ccc(C(F)(F)F)cc3)cc2)c(C)[nH]1,258 to 260 °C
25,COc1cc(NC(=O)c2cc(Br)ccc2O)cc(OC)c1,207 to 209 °C
26,N#Cc1cnn2c1N(C(=O)CCCl)CC=C2c1cccc(C(F)(F)F)c1,183 to 185 °C

row,Compound,melting point
1,CC(=O)Nc1ccc2c(c1)OC(C)O2 (stereo unspecified),155 to 156 °C
2,COc1ccc(CN(C)CCCOc2ccc(NC(=O)c3cccc4c(=O)c5cccc(C)c5[nH]c34)c(C)c2)cc1OC,146 °C
3,O=C(O)COc1ccc(C(=O)c2ccccc2F)c(Cl)c1Cl,153 to 156 °C
4,CCCc1nc2cnc3ccccc3c2n1CCC1(O)CCOCC1,186 to 188 °C
5,O=C(Cc1ccc(Cl)c(Cl)c1)N1C(=O)OC[C@@H]1Cc1ccccc1,70.5 to 71.5 °C
6,CC(CN1CCCC1)N1c2ccccc2Sc2ccc(C(=O)Nc3ccccc3)cc21 (racemic),163 °C
7,Cc1nc2ccc3c(c2o1)OC(CN1CCC(n2c(=O)[nH]c4ccccc42)CC1)CO3 (stereo unspecified),218 to 220 °C
8,c1cnc(N2CCN(Cc3ccc4ccccc4c3)CC2)nc1,109 to 110 °C
9,CCN1c2ncc(CCc3ccncc3)cc2C(=O)Nc2c(C)ccnc21,176 to 178 °C
10,Nc1ccc(S(=O)(=O)Nc2cccc(OP(N)(N)=O)c2)cc1,185 to 186 °C
11,CCCCC(=O)N(Cc1ccc(-c2ccccc2-c2nnn[nH]2)cc1)C(C(=O)OCc1ccccc1)C(C)C (stereo unspecified),106 to 108 °C
12,O=c1[nH]c(=O)n(C2CC(OCc3cccc4ccccc34)C(CO)O2)cc1F (stereo unspecified),159 to 160 °C
13,N#Cc1cccc2c1COc1ccc(OCc3ccc4ccc(Cl)cc4n3)cc1C2SCCC(=O)O (stereo unspecified),193 to 195 °C
14,CC(C)C(O)(Cn1cncn1)c1ccc(C#CI)cc1 (stereo unspecified),122 °C
15,Cc1ccccc1C(=O)NCN1CCN(c2cccc(C#N)c2)CC1,156 to 159 °C
16,NC(=O)N1CCN(C(=O)Cc2ccc(Cl)c(Cl)c2)C(CN2CCCC2)C1 (stereo unspecified),206 to 209 °C
17,O=C1c2ccccc2C(=O)N1CC(=O)N1c2ccccc2N(Cc2ccccn2)C(=O)[C@H]2CCC[C@H]21 (relative stereo),227 to 229 °C
18,BrCCC1c2ccccc2-c2ccccc21,48 to 49 °C
19,O=C1NC(=O)C(S(=O)c2ccc3ccccc3c2)S1 (stereo unspecified),157 to 158 °C
20,C=CC(=O)OCCCCCCOc1ccc(-c2cccc(F)c2F)cc1,45.6 to 46.8 °C
21,N#Cc1ccc(-c2ncccc2O)cc1,245 to 246 °C
22,NC(=O)[C@H]1NC(=O)[C@H]1NC(=O)OCc1ccccc1,248 to 249 °C
23,COc1ccc(-c2cc(=Nc3c(C)cc(C)cc3C)n(C)c(N)n2)cc1OC,192 to 195 °C
